Among the data in ChEMBL document CHEMBL1134520, “Potent somatostatin undecapeptide agonists selective for somatostatin receptor 1 (sst1)” (J Med Chem, 2001) are IC50 values, retold here.

In experiment [1] the target is Somatostatin receptor type 2 (Homo sapiens, UniProt P30874). Nature of the experiment: Tested for ability to bind to 20 uM thick cryostat sections of a membrane pellet of cells transfected with human cloned somatostatin (sst) receptor subtype 2.
Experiment [2] has as its target Somatostatin receptor type 1 (Homo sapiens, UniProt P30872). As to the kind of experiment: Tested for ability to bind to 20 uM thick cryostat sections of a membrane pellet of cells transfected with human cloned somatostatin (sst) receptor subtype 1.
Experiment [3] addresses Somatostatin receptor type 3 (Homo sapiens, UniProt P32745). As to the kind of experiment: Tested for ability to bind to 20 uM thick cryostat sections of a membrane pellet of cells transfected with human cloned somatostatin (sst) receptor subtype 3.
Experiment [4] addresses Somatostatin receptor type 4 (Homo sapiens, UniProt P31391). Nature of the experiment: Tested for ability to bind to 20 uM thick cryostat sections of a membrane pellet of cells transfected with human cloned somatostatin (sst) receptor subtype 4.
Experiment [5] concerns the target Somatostatin receptor type 5 (Homo sapiens, UniProt P35346). As to the kind of experiment: Tested for ability to bind to 20 uM thick cryostat sections of a membrane pellet of cells transfected with human cloned somatostatin (sst) receptor subtype 5.

Numbered stars: 1 amine (or outer) side, 2 acyl side, 3 side chain; on linkers, the order of the positions; unused ones are H or OH. Bridge positions count the residues as written; N and C are the ends. Square brackets hold non-standard residues; d marks the D form. Peptide text beside a SMILES is read from it. Phe(4-NO2) = N[C@@H](Cc1ccc([N+](=O)[O-])cc1)C(=O)O; Phe(4-CH2NHiPr) = CC(C)NCc1ccc(C[C@H](N)C(=O)O)cc1; X1 = CC(C)CNCc1ccc(C[C@H](N[*:1])C(=O)[*:2])cc1; Phe(4-CH2NH2) = NCc1ccc(C[C@H](N)C(=O)O)cc1; d2Nal = N[C@H](Cc1ccc2ccccc2c1)C(=O)O

Sequence of Somatostatin receptor type 1 (P30872 whole entry): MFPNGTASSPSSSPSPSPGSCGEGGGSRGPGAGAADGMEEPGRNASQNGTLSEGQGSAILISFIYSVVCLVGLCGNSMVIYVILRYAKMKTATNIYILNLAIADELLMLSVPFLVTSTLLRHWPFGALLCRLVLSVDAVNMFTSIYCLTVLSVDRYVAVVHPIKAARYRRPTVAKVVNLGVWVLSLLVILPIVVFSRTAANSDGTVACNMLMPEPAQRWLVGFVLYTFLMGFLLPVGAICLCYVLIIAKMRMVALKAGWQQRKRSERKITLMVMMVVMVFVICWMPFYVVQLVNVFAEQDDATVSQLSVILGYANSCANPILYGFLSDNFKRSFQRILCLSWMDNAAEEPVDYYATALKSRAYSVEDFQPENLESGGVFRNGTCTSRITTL
Sequence of Somatostatin receptor type 5 (P35346 whole entry): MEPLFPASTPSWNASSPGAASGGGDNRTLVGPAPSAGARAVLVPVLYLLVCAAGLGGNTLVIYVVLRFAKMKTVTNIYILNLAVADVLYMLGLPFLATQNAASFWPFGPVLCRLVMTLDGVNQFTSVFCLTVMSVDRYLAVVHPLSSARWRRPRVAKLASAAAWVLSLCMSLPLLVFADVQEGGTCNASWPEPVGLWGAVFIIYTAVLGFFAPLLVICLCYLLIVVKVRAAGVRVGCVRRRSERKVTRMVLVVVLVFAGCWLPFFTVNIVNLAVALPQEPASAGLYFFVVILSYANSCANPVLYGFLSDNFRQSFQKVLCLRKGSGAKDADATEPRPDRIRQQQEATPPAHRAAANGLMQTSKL
Sequence of Somatostatin receptor type 2 (P30874 whole entry): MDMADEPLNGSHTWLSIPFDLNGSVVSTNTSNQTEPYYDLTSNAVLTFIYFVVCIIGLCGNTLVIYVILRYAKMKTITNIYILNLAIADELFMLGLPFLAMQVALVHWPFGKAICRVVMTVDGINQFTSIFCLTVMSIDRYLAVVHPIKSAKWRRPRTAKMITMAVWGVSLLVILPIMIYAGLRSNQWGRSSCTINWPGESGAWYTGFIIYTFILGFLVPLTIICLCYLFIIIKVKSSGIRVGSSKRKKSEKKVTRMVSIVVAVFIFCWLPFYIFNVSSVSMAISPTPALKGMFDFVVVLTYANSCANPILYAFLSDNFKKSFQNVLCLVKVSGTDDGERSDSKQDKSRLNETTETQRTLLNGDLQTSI
Sequence of Somatostatin receptor type 4 (P31391 whole entry): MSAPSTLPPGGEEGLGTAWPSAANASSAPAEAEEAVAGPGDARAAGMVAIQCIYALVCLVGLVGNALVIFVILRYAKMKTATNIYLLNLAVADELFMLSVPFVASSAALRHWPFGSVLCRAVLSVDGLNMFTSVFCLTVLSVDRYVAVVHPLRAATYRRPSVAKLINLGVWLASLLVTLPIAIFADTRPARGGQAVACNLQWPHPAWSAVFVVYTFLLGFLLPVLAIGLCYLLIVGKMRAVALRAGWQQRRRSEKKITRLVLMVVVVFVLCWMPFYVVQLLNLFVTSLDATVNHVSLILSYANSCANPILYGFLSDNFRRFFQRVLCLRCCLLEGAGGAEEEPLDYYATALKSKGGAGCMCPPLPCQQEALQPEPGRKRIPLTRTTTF
Sequence of Somatostatin receptor type 3 (P32745 whole entry): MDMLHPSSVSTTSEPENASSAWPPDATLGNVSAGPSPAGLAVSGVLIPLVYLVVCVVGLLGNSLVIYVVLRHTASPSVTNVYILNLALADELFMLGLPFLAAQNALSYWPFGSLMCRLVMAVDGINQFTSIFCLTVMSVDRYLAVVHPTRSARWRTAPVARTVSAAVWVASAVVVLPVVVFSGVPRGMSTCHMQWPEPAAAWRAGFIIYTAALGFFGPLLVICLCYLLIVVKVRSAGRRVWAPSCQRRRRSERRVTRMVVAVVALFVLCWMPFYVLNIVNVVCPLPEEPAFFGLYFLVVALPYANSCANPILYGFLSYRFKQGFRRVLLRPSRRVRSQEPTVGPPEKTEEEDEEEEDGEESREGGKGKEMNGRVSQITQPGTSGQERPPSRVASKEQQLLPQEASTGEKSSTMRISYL

On to `CC(C)NCc1ccc(C[C@@H]2NC(=O)[C@@H](Cc3ccc4ccccc4c3)NC(=O)[C@H](Cc3ccccc3)NC(=O)[C@H](Cc3ccccc3)NC(=O)[C@H](CCCCN)NC(=O)[C@@H](NC(=O)CCc3ccc(O)cc3)CSSC[C@@H](C(=O)O)NC(=O)[C@H](CO)NC(=O)[C@H]([C@@H](C)O)NC(=O)[C@H](Cc3ccccc3)NC(=O)[C@H]([C@@H](C)O)NC2=O)cc1`, for which the 50% inhibitory concentration (IC50) (in general, the concentration that gives 50% inhibition) in experiment [1] is more than 1000 nM; in experiment [2], 563 nM; in experiment [3], more than 1000 nM; in experiment [4], more than 10000 nM; in experiment [5], more than 10000 nM.

As for `CC(C)NCc1ccc(C[C@@H]2NC(=O)[C@@H](Cc3c[nH]c4ccccc34)NC(=O)[C@H](Cc3ccc(O)cc3)NC(=O)[C@H](Cc3ccccc3)NC(=O)[C@H](CCCCN)NC(=O)[C@@H](N)CSSC[C@@H](C(=O)O)NC(=O)[C@H](CO)NC(=O)[C@H]([C@@H](C)O)NC(=O)[C@H](Cc3ccccc3)NC(=O)[C@H]([C@@H](C)O)NC2=O)cc1`, the 50% inhibitory concentration (IC50) in experiment [1] was more than 10000 nM; in experiment [2] it was 530 nM; in experiment [3], more than 10000 nM; in experiment [4], more than 10000 nM; in experiment [5], more than 1000 nM.

As for `CC(C)NCc1ccc(C[C@@H]2NC(=O)[C@@H](Cc3cn(Cc4ccccc4)cn3)NC(=O)[C@H](Cc3ccccc3)NC(=O)[C@H](Cc3ccccc3)NC(=O)[C@H](CCCCN)NC(=O)[C@@H](N)CSSC[C@@H](C(=O)O)NC(=O)[C@H](CO)NC(=O)[C@H]([C@@H](C)O)NC(=O)[C@H](Cc3ccccc3)NC(=O)[C@H]([C@@H](C)O)NC2=O)cc1`, the IC50 in experiment [1] was more than 1000 nM; in experiment [2], more than 1000 nM; in experiment [3], more than 1000 nM; in experiment [4] it was more than 10000 nM; in experiment [5], more than 10000 nM.

Turning to `CC(C)CN(Cc1ccc(C[C@@H]2NC(=O)[C@@H](Cc3c[nH]c4ccccc34)NC(=O)[C@H](Cc3ccccc3)NC(=O)[C@H](Cc3ccccc3)NC(=O)[C@H](CCCCN)NC(=O)[C@@H](N)CSSC[C@@H](C(=O)O)NC(=O)[C@H](CO)NC(=O)[C@H]([C@@H](C)O)NC(=O)[C@H](Cc3ccccc3)NC(=O)[C@H]([C@@H](C)O)NC2=O)cc1)CC(C)C`, the IC50 is more than 10000 nM in experiment [1]; more than 1000 nM in experiment [2]; more than 10000 nM in experiment [3]; more than 10000 nM in experiment [4]; more than 10000 nM in experiment [5].

Turning to `C[C@@H](O)[C@@H]1NC(=O)[C@H](Cc2ccccc2)NC(=O)[C@H]([C@@H](C)O)NC(=O)[C@H](Cc2ccc(CN)cc2)NC(=O)[C@@H](Cc2ccc3ccccc3c2)NC(=O)[C@H](Cc2ccccc2)NC(=O)[C@H](Cc2ccccc2)NC(=O)[C@H](CCCCN)NC(=O)[C@@H](N)CSSC[C@@H](C(=O)O)NC(=O)[C@H](CO)NC1=O`, the 50% inhibitory concentration (IC50) in experiment [1] was 343 nM; in experiment [2], 347 nM; in experiment [3] it was 81 nM; in experiment [4], more than 1000 nM; in experiment [5], 385 nM.

In the case of `C[C@H](N)C(=O)NCC(=O)N[C@H]1CSSC[C@@H](C(=O)O)NC(=O)[C@H](CO)NC(=O)[C@H]([C@@H](C)O)NC(=O)[C@H](Cc2ccccc2)NC(=O)[C@H]([C@@H](C)O)NC(=O)[C@H](CCCCN)NC(=O)[C@@H](Cc2c[nH]c3ccccc23)NC(=O)[C@H](Cc2ccccc2)NC(=O)[C@H](Cc2ccccc2)NC(=O)[C@H](CCCCN)NC1=O` (H-AGCKFF[dW]KTFTSC-OH; disulfide 3-13), the IC50 worked out at 42.5 nM in experiment [1]; 1 nM in experiment [2]; 3.4 nM in experiment [3]; 1.7 nM in experiment [4]; 5 nM in experiment [5].

As to `CC(C)NCc1ccc(C[C@@H]2NC(=O)[C@@H](Cc3ccc4ccccc4c3)NC(=O)[C@H](Cc3ccccc3)NC(=O)[C@H](Cc3ccccc3)NC(=O)[C@H](CCCCN)NC(=O)[C@@H](N)CSSC[C@@H](C(=O)O)NC(=O)[C@H](CO)NC(=O)[C@H]([C@@H](C)O)NC(=O)[C@H](Cc3ccccc3)NC(=O)[C@H]([C@@H](C)O)NC2=O)cc1` (H-CKFF[d2Nal][Phe(4-CH2NHiPr)]TFTSC-OH; disulfide 1-11), the IC50 in experiment [1] was more than 1000 nM; in experiment [2] it was 103 nM; in experiment [3], more than 1000 nM; in experiment [4], more than 1000 nM; in experiment [5] it was more than 10000 nM.

As to `C[C@@H](O)[C@@H]1NC(=O)[C@H](Cc2ccccc2)NC(=O)[C@H]([C@@H](C)O)NC(=O)[C@H](Cc2ccc(CN)cc2)NC(=O)[C@@H](Cc2c[nH]c3ccccc23)NC(=O)[C@H](Cc2ccccc2)NC(=O)[C@H](Cc2ccccc2)NC(=O)[C@H](CCCCN)NC(=O)[C@@H](N)CSSC[C@@H](C(=O)O)NC(=O)[C@H](CO)NC1=O` (H-CKFF[dW][Phe(4-CH2NH2)]TFTSC-OH; disulfide 1-11), the IC50 was found to be 213 nM in experiment [1]; 309 nM in experiment [2]; 273 nM in experiment [3]; 267 nM in experiment [4]; 190 nM in experiment [5].

In the case of `CC(C)NCc1ccc(C[C@@H]2NC(=O)[C@@H](Cc3c[nH]c4ccccc34)NC(=O)[C@H](Cc3ccccc3)NC(=O)[C@H](Cc3ccccc3)NC(=O)[C@H](CCCCN)NC(=O)[C@@H](N)CSSC[C@@H](C(=O)O)NC(=O)[C@@H](CO)NC(=O)[C@H]([C@@H](C)O)NC(=O)[C@H](Cc3ccccc3)NC(=O)[C@H]([C@@H](C)O)NC2=O)cc1` (H-CKFF[dW][Phe(4-CH2NHiPr)]TFT[dS]C-OH; disulfide 1-11), the half-inhibitory concentration (IC50) was more than 10000 nM in experiment [1]; 187 nM in experiment [2]; more than 1000 nM in experiment [3]; more than 1000 nM in experiment [4]; more than 1000 nM in experiment [5].

As to `CC(C)CNCc1ccc(C[C@@H]2NC(=O)[C@@H](Cc3c[nH]c4ccccc34)NC(=O)[C@H](Cc3ccccc3)NC(=O)[C@H](Cc3ccccc3)NC(=O)[C@H](CCCCN)NC(=O)[C@@H](N)CSSC[C@@H](C(=O)O)NC(=O)[C@H](CO)NC(=O)[C@H]([C@@H](C)O)NC(=O)[C@H](Cc3ccccc3)NC(=O)[C@H]([C@@H](C)O)NC2=O)cc1` (H-CKFF[dW][X1]TFTSC-OH; disulfide 1-11), the concentration for half-maximal inhibition (IC50) in experiment [1] was more than 1000 nM; in experiment [2], 130 nM; in experiment [3] it was 381 nM; in experiment [4], more than 1000 nM; in experiment [5], more than 1000 nM.

On to `CC(C)NCc1ccc(C[C@@H]2NC(=O)[C@@H](Cc3ccc4ccccc4c3)NC(=O)[C@H](Cc3ccc([N+](=O)[O-])cc3)NC(=O)[C@H](Cc3ccccc3)NC(=O)[C@H](CCCCN)NC(=O)[C@@H](N)CSSC[C@@H](C(=O)O)NC(=O)[C@H](CO)NC(=O)[C@H]([C@@H](C)O)NC(=O)[C@H](Cc3ccccc3)NC(=O)[C@H]([C@@H](C)O)NC2=O)cc1` (H-CKF[Phe(4-NO2)][d2Nal][Phe(4-CH2NHiPr)]TFTSC-OH; disulfide 1-11), for which the IC50 is more than 1000 nM in experiment [1]; 35 nM in experiment [2]; 975 nM in experiment [3]; more than 1000 nM in experiment [4]; more than 1000 nM in experiment [5].

In the case of `CC(C)NCc1ccc(C[C@@H]2NC(=O)[C@@H](Cc3c[nH]c4ccccc34)NC(=O)[C@H](Cc3ccccc3)NC(=O)[C@H](Cc3ccccc3)NC(=O)[C@H](CC(N)=O)NC(=O)[C@H](CCCCN)NC(=O)[C@@H](N)CSSC[C@@H](C(=O)O)NC(=O)[C@H](CO)NC(=O)[C@H]([C@@H](C)O)NC(=O)[C@H](Cc3ccccc3)NC(=O)[C@H]([C@@H](C)O)NC2=O)cc1` (H-CKNFF[dW][Phe(4-CH2NHiPr)]TFTSC-OH; disulfide 1-12), the IC50 in experiment [1] is more than 1000 nM; in experiment [2], 443 nM; in experiment [3], more than 10000 nM; in experiment [4] it was more than 10000 nM; in experiment [5], more than 10000 nM.

Consider `CC(C)NCc1ccc(C[C@@H]2NC(=O)[C@@H](Cc3ccc4ccccc4c3)NC(=O)[C@H](Cc3ccccc3)NC(=O)[C@H](Cc3ccccc3)NC(=O)[C@H](CCCCN)NC(=O)[C@H](NC(=O)CCc3ccc(O)cc3)CSSC[C@@H](C(=O)O)NC(=O)[C@H](CO)NC(=O)[C@H]([C@@H](C)O)NC(=O)[C@H](Cc3ccccc3)NC(=O)[C@@H]([C@@H](C)O)NC2=O)cc1` (stereo in doubt; 31), for which the IC50 was more than 10000 nM in experiment [1]; 975 nM in experiment [2]; more than 1000 nM in experiment [3]; more than 1000 nM in experiment [4]; more than 10000 nM in experiment [5].
